{"source": "patent US4425356A", "about": "“Lankacidin derivatives used in swine husbandry” (Takeda Chemical Industries, Ltd., priority 1980, dated 1984)", "key": {"[1]": {"system": "Treponema hyodysenteriae", "assay": "in vitro antibacterial activity (MIC, agar dilution method), Test Examples 1-3", "format": "cell-based", "method_in_brief": "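MICs were found by agar dilution against field isolates from bloody mucous faeces of dysenteric pigs in Japan. The inoculum was a loopful of 10^6 CFU/ml suspension. Plates were incubated anaerobically (GasPak) at 37 °C.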"}, "[2]": {"system": "Treponema hyodysenteriae", "assay": "efficacy in experimental infection in mice with swine dysentery, Test Example 4", "format": "in vivo", "conditions": "5 mg/kg/day oral, day 1 to day 4; seven days after infection", "method": "Lankacidin A, lankacidin C, lankacidin C 8-acetate, lankacidin C 14-propionate, lankacidinol A and lankacidinol were tested for efficacy against swine dysentery in experimental infection in mice with swine dysentery.\nThe similar experimental infection model of swine dysentery in mice as that described, for example, by Joens et al. in Infection and Immunity, 25, 757-760 (1979), American Journal of Veterinary Research, 41, 1225-1226 (1980) and Veterinary Record, 107, 527-529 (1980) was used. Thus, a field isolate of Treponema hyodysenteriae anaerobically cultivated on the 5% defibrinated horse blood added Trypticase soy agar (BBL) plate was mashed together with the culture medium and diluted two-fold with Trypticase soy broth (BBL). Mice were inoculated intragastrically with this infecting dilution. Each test agent was suspended in 5% gum arabic solution and forcibly administered orally from day 1 to day 4 following infection. Seven days after infection, the cecum was examined for lesions, and the cecum was mashed together with the contents and subjected to Treponema hyodysenteriae counting. Excellent efficacy was produced in each of the drug-administered groups."}, "[3]": {"system": "Treponema hyodysenteriae 78/A strain", "assay": "efficacy against swine dysentery under experimental infection conditions in pigs (drug in feed), Test Examples 5-7", "format": "in vivo, Landrace pigs", "conditions": "for Number of days on which diarrhea was observed / Number of days on which mucous bloody stool was observed / Number of pigs showing signs of infection/number of pigs used: 21-day test period; for Body weight gain / Feed conversion / Feed intake: 21 day period; for Body weight gain / Feed conversion / Feed intake / Body weight at the time of completion of test: mean per head", "method_in_brief": "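Landrace pigs, 4 per group, fed starter feed with drug admixed (100 ppm or lower; 10 ppm for lankacidin A and C 14-propionate) ad libitum; infected at 7 weeks after 24 h fast by 100 ml intragastric inoculum of two-fold diluted colonic contents/mucosa from 78/A-infected pigs. Fed 21 days post-infection; per-head means to autopsy.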"}, "[4]": {"system": "Treponema hyodysenteriae 78/A strain", "assay": "therapeutic administration in pigs showing clinical signs of swine dysentery, Test Examples 8-9", "format": "in vivo", "conditions": "for No. of pathogen (in feces) / Condition of feces: individual pig", "method": "This test was conducted under the conditions of so-called therapeutic administration. […] The method of infection was the same as in Test Example 5. […] Simultaneously with showing of the signs, the pigs were provided with a feed containing 50 ppm of lankacidin C. […] After 2 days, the viable count for the pathogen in feces was below the detection limit (10^2 CFU/g).\nThe condition of feces was rated at one of the following four classes:\n.circle. normal; loose; diarrheal; .circleincircle. mucous and bloody\ncount is below the detection limit (10^2 CFU/g).\nThe symbol * indicates those days on which the feed containing 50 ppm of\nlankacidin C was given.\nLankacidins were tested for therapeutic effects in swine dysentery under therapeutic conditions in the same manner as in Test Example 8. The effects were judged based on the condition of feces.\nThe condition of feces was rated at one of the following four classes;\nThe symbol * indicates the days on which the feed containing 50 ppm of th"}, "[5]": {"conditions": "50 ppm in feed, autopsy 15 days after manifestation of signs"}}, "note": "Values joined by “and” are separate entries in the source; they are usually repeats but may differ in a detail not shown here. Identical values can stand only once. “Also recorded” adds a separate entry of the source."}
{"molecule": "CC(=O)C(=O)NC1C=C(C)C=CC(O)CC=C(C)C=CC(O)CC2OC(=O)C1(C)C(=O)C2C", "note": "(centres unmarked) [Lankacidin C, lankacidin C]", "values": [{"measurement": "MIC", "setting": "[1]; Brachyspira hyodysenteriae, 48 h, read-out: Minimum Inhibitory Concentration, strain DJ70P1, 37° C., 2 days, anaerobic", "value": 3.13, "unit": "µg/mL"}, {"measurement": "in vitro antibacterial activity (in words)", "setting": "[1]; against Treponema hyodysenteriae", "value": "strong antibacterial activity"}, {"measurement": "Number of mice from which the pathogen was detected/number of mice tested", "setting": "[2]", "value": "1/5"}, {"measurement": "Number of mice with cecal lesions/number of mice tested", "setting": "[2]", "value": "0/5"}, {"measurement": "Number of pigs from which the pathogen was detected, in colonic mucosa", "setting": "[3]; 10 ppm in feed", "value": 0}, {"measurement": "Number of pigs from which the pathogen was detected, in feces", "setting": "[3]; 10 ppm in feed", "value": 0}, {"measurement": "Number of pigs showing colonic lesions", "setting": "[3]; 10 ppm in feed", "value": 0}, {"measurement": "Number of days on which diarrhea was observed", "setting": "[3]; 10 ppm in feed", "value": 0, "unit": "days"}, {"measurement": "Number of days on which mucous bloody stool was observed", "setting": "[3]; 10 ppm in feed", "value": 0, "unit": "days"}, {"measurement": "Number of pigs showing signs of infection/number of pigs used", "setting": "[3]; 10 ppm in feed", "value": "0/4"}, {"measurement": "Body weight gain", "setting": "[3]; 10 ppm in feed", "value": 484, "unit": "grams/day"}, {"measurement": "Feed conversion", "setting": "[3]; 10 ppm in feed", "value": 1.81}, {"measurement": "Feed intake", "setting": "[3]; 10 ppm in feed", "value": 18.4, "unit": "kg"}, {"measurement": "Body weight at the time of completion of test", "setting": "[3]; 10 ppm in feed", "value": 20.7, "unit": "kg"}, {"measurement": "Number of pigs from which the pathogen was detected, in colonic mucosa", "setting": "[3]; 50 ppm in feed", "value": 0}, {"measurement": "Number of pigs from which the pathogen was detected, in feces", "setting": "[3]; 50 ppm in feed", "value": 0}, {"measurement": "Number of pigs showing colonic lesions", "setting": "[3]; 50 ppm in feed", "value": 0}, {"measurement": "Number of days on which diarrhea was observed", "setting": "[3]; 50 ppm in feed", "value": 0, "unit": "days"}, {"measurement": "Number of days on which mucous bloody stool was observed", "setting": "[3]; 50 ppm in feed", "value": 0, "unit": "days"}, {"measurement": "Number of pigs showing signs of infection/number of pigs used", "setting": "[3]; 50 ppm in feed", "value": "0/4"}, {"measurement": "Body weight gain", "setting": "[3]; 50 ppm in feed", "value": 673, "unit": "grams/day"}, {"measurement": "Feed conversion", "setting": "[3]; 50 ppm in feed", "value": 1.79}, {"measurement": "Feed intake", "setting": "[3]; 50 ppm in feed", "value": 25.3, "unit": "kg"}, {"measurement": "Body weight at the time of completion of test", "setting": "[3]; 50 ppm in feed", "value": 25.3, "unit": "kg"}, {"measurement": "Number of pigs from which the pathogen was detected, in colonic mucosa", "setting": "[3]; 100 ppm in feed", "value": 0}, {"measurement": "Number of pigs from which the pathogen was detected, in feces", "setting": "[3]; 100 ppm in feed", "value": 0}, {"measurement": "Number of pigs showing colonic lesions", "setting": "[3]; 100 ppm in feed", "value": 0}, {"measurement": "Number of days on which diarrhea was observed", "setting": "[3]; 100 ppm in feed", "value": 0, "unit": "days"}, {"measurement": "Number of days on which mucous bloody stool was observed", "setting": "[3]; 100 ppm in feed", "value": 0, "unit": "days"}, {"measurement": "Number of pigs showing signs of infection/number of pigs used", "setting": "[3]; 100 ppm in feed", "value": "0/4"}, {"measurement": "Body weight gain", "setting": "[3]; 100 ppm in feed", "value": "708 grams/day and 689 grams/day"}, {"measurement": "Feed conversion", "setting": "[3]; 100 ppm in feed", "value": "1.85 and 1.77"}, {"measurement": "Feed intake", "setting": "[3]; 100 ppm in feed", "value": "27.5 kg and 25.6 kg"}, {"measurement": "Body weight at the time of completion of test", "setting": "[3]; 100 ppm in feed", "value": "28.5 kg and 25.5 kg"}, {"measurement": "effect against swine dysentery (in words)", "setting": "[3]; pig, in vivo", "value": "excellent effect against swine dysentery; also recorded: more excellent anti-swine-dysentery agent than carbadox"}, {"measurement": "therapeutic effect in swine dysentery (in words)", "setting": "[4]; 50 ppm in feed", "value": "therapeutically effective"}, {"measurement": "viable count for the pathogen in feces", "setting": "[4]; 50 ppm in feed, after 2 days", "value": "< 10^2 CFU/g"}, {"measurement": "colonic lesions (autopsy)", "setting": "[4]; [5]", "value": "negative"}, {"measurement": "pathogen at autopsy (in words)", "setting": "[4]; [5]", "value": "without the pathogen being detected"}, {"measurement": "colonic lesions (autopsy)", "setting": "[4]; 50 ppm in feed, autopsy 15 days after manifestation of signs, listed as lankacidin C", "value": "no colonic lesions"}, {"measurement": "No. of pathogen (in feces)", "setting": "[4]; 50 ppm in feed, day 0", "value": "8.0 log/g and 6.0 log/g and 7.1 log/g and 6.8 log/g"}, {"measurement": "No. of pathogen (in feces)", "setting": "[4]; 50 ppm in feed, day 1", "value": "4.3 log/g and 2.3 log/g and 4.4 log/g and 2.0 log/g"}, {"measurement": "mucous bloody diarrhea / passage (in words)", "setting": "[4]; 50 ppm in feed, day following the administration", "value": "mucous bloody diarrhea was no more observed on the day following the administration but the passage was loose or normal"}, {"measurement": "Condition of feces", "setting": "[4]; Table 8, 50 ppm in feed days 0-6, day 7", "value": ".circle."}, {"measurement": "Condition of feces", "setting": "[4]; Table 8, 50 ppm in feed days 0-6, day 8", "value": ".circle."}, {"measurement": "Condition of feces", "setting": "[4]; Table 8, 50 ppm in feed days 0-6, day 9", "value": ".circle."}, {"measurement": "Condition of feces", "setting": "[4]; Table 8, 50 ppm in feed days 0-6, day 10", "value": ".circle."}, {"measurement": "Condition of feces", "setting": "[4]; Table 8, 50 ppm in feed days 0-6, day 11", "value": ".circle."}, {"measurement": "Condition of feces", "setting": "[4]; Table 8, 50 ppm in feed days 0-6, day 12", "value": ".circle."}, {"measurement": "Condition of feces", "setting": "[4]; Table 8, 50 ppm in feed days 0-6, day 13", "value": ".circle."}, {"measurement": "Condition of feces", "setting": "[4]; Table 8, 50 ppm in feed days 0-6, day 14", "value": ".circle."}, {"measurement": "Condition of feces", "setting": "[4]; Table 8, 50 ppm in feed days 0-6, day 15", "value": ".circle."}, {"measurement": "Condition of feces", "setting": "[4]; Table 8, 50 ppm in feed, day 0 after manifestation of signs", "value": ".circleincircle."}, {"measurement": "Condition of feces", "setting": "[4]; Table 8, 50 ppm in feed, day 1", "value": ".circle."}, {"measurement": "Condition of feces", "setting": "[4]; Table 8, 50 ppm in feed, day 2", "value": ".circle."}, {"measurement": "Condition of feces", "setting": "[4]; Table 8, 50 ppm in feed, day 3", "value": ".circle."}, {"measurement": "Condition of feces", "setting": "[4]; Table 8, 50 ppm in feed, day 4", "value": ".circle."}, {"measurement": "Condition of feces", "setting": "[4]; Table 8, 50 ppm in feed, day 5", "value": ".circle."}, {"measurement": "Condition of feces", "setting": "[4]; Table 8, 50 ppm in feed, day 6", "value": ".circle."}, {"measurement": "Condition of feces", "setting": "[4]; Table 9, 50 ppm in feed, day 0 after manifestation of signs", "value": ".circleincircle."}, {"measurement": "Condition of feces", "setting": "[4]; Table 9, 50 ppm in feed, day 1", "value": ".circle."}, {"measurement": "Condition of feces", "setting": "[4]; Table 9, 50 ppm in feed, day 2", "value": ".circle."}, {"measurement": "Condition of feces", "setting": "[4]; Table 9, 50 ppm in feed, day 3", "value": ".circle."}, {"measurement": "Condition of feces", "setting": "[4]; Table 9, 50 ppm in feed, day 4", "value": ".circle."}, {"measurement": "Condition of feces", "setting": "[4]; Table 9, 50 ppm in feed, day 5", "value": ".circle."}]}
